Measurements taken from PubChem BioAssay (NCI).
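All cell lines were grown in 96-well plates and treated with compound for 48 hours. GI50 = concentration required for 50% inhibition of growth. The concentration for full growth arrest is given as TGI.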

How the values were obtained:
Test in all cases: growth of human tumour cells (NCI), 48 h
SK-MEL-2 melanoma = test system: SK-MEL-2 melanoma
UO-31 renal = test system: UO-31 renal
SW-620 colon = test system: SW-620 colon
RPMI-8226 leukemia = test system: RPMI-8226 leukemia
HT29 colon = test system: HT29 colon
A498 renal = test system: A498 renal
A549 NSCLC = test system: A549 NSCLC
SF-539 CNS = test system: SF-539 CNS
NCI-H23 lung = test system: NCI-H23 lung
HOP-92 NSCLC = test system: HOP-92 NSCLC

Row | SMILES | GI50 (SK-MEL-2 melanoma) [µM] | TGI (SK-MEL-2 melanoma) [µM] | GI50 (UO-31 renal) [µM] | TGI (UO-31 renal) [µM] | GI50 (SW-620 colon) [µM] | TGI (SW-620 colon) [µM] | GI50 (RPMI-8226 leukemia) [µM] | TGI (RPMI-8226 leukemia) [µM] | GI50 (HT29 colon) [µM] | TGI (HT29 colon) [µM] | GI50 (A498 renal) [µM] | TGI (A498 renal) [µM] | GI50 (A549 NSCLC) [µM] | TGI (A549 NSCLC) [µM] | GI50 (SF-539 CNS) [µM] | TGI (SF-539 CNS) [µM] | TGI (NCI-H23 lung) [µM] | GI50 (NCI-H23 lung) [µM] | GI50 (HOP-92 NSCLC) [µM] | TGI (HOP-92 NSCLC) [µM]
1 | C[C@H]1CCCC(O)C(O)[C@@H]2C[C@H](O[Si](C)(C)C(C)(C)C)C[C@H]2[C@H](O[Si](C)(C)C(C)(C)C)C(O)C(O)C(=O)O1 (some centres not stated) | 34.8 | > 100 | 42.2 | > 100 | 94.7 | > 100 | > 100 | > 100 | 62.7 | > 100 | 40.4 | > 100 | 31.5 | > 100 | 14.4 | 30.7 | – | – | – | –
2 | CSc1nnc(COc2ccc(Cl)cc2)o1 | – | – | – | > 100 | – | > 100 | – | – | – | > 100 | – | > 100 | – | > 100 | – | > 100 | > 100 | – | – | –
3 | CC(C)(C)C(=O)[CH-]C(=O)C(C)(C)C.CC(C)(C)C(=O)[CH-]C(=O)C(C)(C)C.CN(C)c1ccc([O-])cc1.CN(C)c1ccc([O-])cc1.[Ti+4] | > 100 | > 100 | > 100 | > 100 | > 100 | > 100 | 52.7 | > 100 | > 100 | > 100 | – | – | > 100 | > 100 | 55.8 | > 100 | > 100 | > 100 | 72 | > 100
4 | Cn1c2c(c3ccccc31)CCN(CCN1CCN(c3cccc(Cl)c3)CC1)C2=O | – | – | – | > 100 | – | > 100 | – | > 100 | – | 41 | – | > 100 | – | > 100 | – | > 100 | > 100 | – | – | 77.1
5 | COC(=O)C1(C(=O)OC)CC(=O)c2cc3c(cc2-c2c(cc(OC)c(OC)c2OC)C1)OCO3 | – | > 211 | – | – | – | > 211 | – | – | – | > 211 | – | – | – | > 211 | – | > 211 | > 211 | – | – | 167
6 | CC(C)(Oc1ccc(/C=C/C(=O)c2ccc(Cl)cc2)cc1)C(=O)Nc1c(Cl)cccc1Cl | – | > 100 | – | 54.2 | – | 27.8 | – | – | – | 28 | – | 32.4 | – | > 100 | – | 28.1 | 40.9 | – | – | 91.5
7 | CCCCCCCCCCCCCCCC[N+]1(C)CCOCC1 | – | – | 13.4 | 31.6 | 2.05 | 10.4 | 1.3 | 4.06 | 0.766 | 3 | 3.38 | 21.5 | 2.79 | 12.2 | 1.87 | 4.07 | 12.2 | 2.2 | 0.499 | 2.64
8 | CC(C)(C)OC(=O)NCCCCCCCn1c2c(c3ccccc3c1=O)C(=O)c1ccccc1-2 | 36.6 | > 100 | 25.6 | > 100 | 44 | > 100 | – | – | 37.6 | > 100 | 4.74 | 42.2 | 31.8 | > 100 | 20.7 | 38.8 | > 100 | 26 | 15 | 37.1
9 | O=C1CCCCN1CCCCC#Cc1cccc(C#Cc2cccnc2)c1 | – | – | 5.97 | 23 | 39.9 | > 100 | 4.64 | 28.7 | 11.9 | 40 | 42.8 | > 100 | 18.4 | 60.6 | 31.8 | > 100 | 37.7 | 17.1 | 19.2 | > 100
10 | O=C(/C=C/c1ccccc1)CC(=O)CCC(=O)Nc1ccc(Cl)cc1 | – | > 100 | – | > 100 | – | > 100 | – | > 100 | – | > 100 | – | > 100 | – | > 100 | – | > 100 | > 100 | – | – | –
11 | COC(=O)C1=Nc2c(C)nn(-c3ccccc3)c2N=C(c2ccccc2)C1 | – | – | – | – | – | > 10 | – | > 10 | – | > 10 | – | – | – | > 10 | – | > 10 | > 10 | – | – | > 10
12 | CN(C)C(=S)/N=c1\ssc(=S)n1Cc1ccncc1 | – | 52.2 | – | 88.5 | – | 48.8 | – | – | – | – | – | 73.8 | – | > 100 | – | 48.4 | 60.7 | – | – | –
13 | CCCCn1c(-c2ccc(C(=O)O/N=C(\N)c3ccc4c(c3)OCO4)cc2)nc(-c2ccccc2)c1-c1ccccc1 | 4.19 | > 100 | 0.229 | 0.562 | 3.81 | > 100 | – | – | 3.33 | > 100 | 0.306 | 2.82 | 1.92 | 5.22 | 3 | 10.2 | > 100 | 2.23 | – | –
14 | CCCCN(CC)CC(C(C)=O)c1c(O)c2ccccc2oc1=O (configuration not stated) | – | > 100 | – | > 100 | – | > 100 | – | > 100 | – | > 100 | – | > 100 | – | > 100 | – | > 100 | > 100 | – | – | –
15 | CCC(=O)Nc1nc2c(ncn2C2OC(COC(=O)CC)C(OC(=O)CC)C2OC(=O)CC)c(=O)[nH]1 (configuration not stated) | – | > 100 | – | > 100 | – | > 100 | – | > 100 | – | > 100 | – | > 100 | – | > 100 | – | > 100 | – | – | – | –
16 | Cc1ccccc1NC(=O)C1C(=O)N(c2ccccc2C)C(=O)/C1=N\NC(N)=S (configuration not stated) | – | > 100 | – | > 100 | – | > 100 | – | > 100 | – | > 100 | – | – | – | > 100 | – | > 100 | > 100 | – | – | > 100
17 | COc1ccc(/C(=N\NC(=S)NN)C(c2ccc(OC)cc2)C2C(=O)Oc3ccccc32)cc1 (configuration not stated) | > 100 | > 100 | > 100 | > 100 | > 100 | > 100 | > 100 | > 100 | > 100 | > 100 | – | – | > 100 | > 100 | > 100 | > 100 | > 100 | > 100 | > 100 | > 100
18 | NC(=S)NN/C=C(\C=Nc1ccccc1)[N+](=O)[O-] | – | > 100 | – | – | – | > 100 | – | > 100 | – | > 100 | – | – | – | > 100 | – | > 100 | > 100 | – | – | > 100
19 | O=C(O)c1ccc(C2C(=O)N[C@@H]3CCC[C@H]23)cc1 (some centres not stated) | – | > 100 | – | > 100 | – | > 100 | – | > 100 | – | > 100 | – | > 100 | – | > 100 | – | > 100 | > 100 | – | – | –
20 | CCOC(=O)NC(=O)c1cn(CCN2CCN(C(=O)CCCCCCCCCCC(=O)N3CCN(CCn4cc(C(=O)NC(=O)OCC)c(=O)[nH]c4=O)CC3)CC2)c(=O)[nH]c1=O | – | – | – | > 100 | – | > 100 | – | > 100 | – | > 100 | – | > 100 | – | > 100 | – | > 100 | > 100 | – | – | > 100
21 | COc1cnc2c(c1)C(=O)c1c-2n(CCCN2CCN(C)CC2)c(=O)c2cc([N+](=O)[O-])ccc12 | 11 | 23.2 | – | – | 0.0227 | 1.38 | 0.226 | 0.917 | 0.167 | 0.352 | – | – | 0.128 | 0.337 | 0.191 | 0.386 | 2.6 | 0.362 | 1.82 | 4.37
22 | COC(=O)C(/C(=N\O)C(=O)Nc1cccc(Cl)c1C)c1cnc2ccccc2n1 (configuration not stated) | – | > 100 | – | > 100 | – | > 100 | – | – | – | > 100 | – | > 100 | – | > 100 | – | > 100 | > 100 | – | – | > 100
23 | Cc1ccccc1C(=O)N1CCN(C(=O)c2ccccc2C)CC1 | – | – | – | > 100 | – | > 100 | – | > 100 | – | > 100 | – | > 100 | – | > 100 | – | > 100 | > 100 | – | – | > 100
24 | c1ccc(N2N=C(c3ccco3)CC2c2ccco2)cc1 (configuration not stated) | – | > 100 | – | > 100 | – | > 100 | – | > 100 | – | > 100 | – | – | – | > 100 | – | > 100 | > 100 | – | – | –
25 | CSC(=NCCc1c[nH]c2ccccc12)NC#N | – | – | – | > 100 | – | > 100 | – | > 100 | – | > 100 | – | – | – | > 100 | – | > 100 | > 100 | – | – | –
26 | CCOC(=O)c1cc2c3c(c(O)c(OC)c2s1)N(C(=O)c1cc2c4c(c(O)c(OC)c2s1)N(C(C)=O)CC4)CC3 | – | – | – | > 100 | – | > 100 | – | > 100 | – | > 100 | – | > 100 | – | > 100 | – | > 100 | > 100 | – | – | > 100
27 | CCCCN(CCCC)C(=O)/C(CC(=O)c1cccc2ccccc12)=N\NC(=O)c1cc2ccccc2cc1O | – | 45.7 | – | 37.3 | – | > 100 | – | 21.5 | – | 57.7 | – | – | – | 64.8 | – | – | 45.6 | – | – | 56.8
28 | C/C(=N/NC(=O)C[N+](C)(C)C)C(CN(C)C)C(=O)Nc1ccccc1 (configuration not stated) | – | > 100 | – | > 100 | – | > 100 | – | – | – | > 100 | – | > 100 | – | > 100 | – | > 100 | > 100 | – | – | –
29 | CC1(C)CC2C(=O)c3ccccc3NC2c2ccccc21 (configuration not stated) | – | – | – | > 67.2 | – | > 100 | – | 14.4 | – | > 33.2 | – | > 100 | – | > 100 | – | > 22.8 | > 64.8 | – | – | > 100
